Results reported in US20100075960A1 (priority 2006, published 2010).
pIC50: −log10 of the molar value.

What was measured:
Format in all cases: cell-based
[1] = system: BC-1; assay: Inhibition of cell proliferation, BC-1; settings: Homo sapiens, BC1; peripheral blood; 72 h; methylene blue or CellTiter-Glo
Experimental: (§1) II. Inhibition of Cell Proliferation by PLK1 Inhibitors.
(§2) Exponentially growing cell lines of different tumor origins, cultured in appropriate media containing 10% fetal bovine serum at 37° C. in a 5% CO2 incubator were plated in 96 or 384-well plates. Twenty four hours post-plating, cells were treated with different concentrations of test compounds ranging from 20 μM to 0.04 nM. Several wells were left untreated as a control. Seventy two hours post-treatment, cell numbers were determined using different techniques; 100 μl per well of methylene blue (Sigma M9140) (0.5% in 50:50 Ethanol:water), or 10-100 μl per well of CellTiter-Glo (Promega #G7573), depending on well size. For methylene blue staining, stain was incubated at room temperature for 30 minutes before plates were rinsed and dye solubilized in 1% N-lauroyl sarcosine, sodium salt, (Sigma L5125, in PBS). Plates were read on a microplate reader, measuring the OD at 620 nm. For CellTiter-Glo, plates were incubated at room temperature for 15 minutes and the chemiluminescent signal was read on the Victor V or Envison 2100 reader.
(§3) Percent inhibition of cell growth was expressed as percent proliferation relative to 100% proliferation (control). […]

[2] = system: CEM/C1; assay: Inhibition of cell proliferation, CEM/C1; settings: peripheral blood, 72 h, methylene blue or CellTiter-Glo
Experimental: as §1, §2, §3

[3] = system: BDCM; assay: Inhibition of cell proliferation, BDCM; settings: peripheral blood; 72 h; methylene blue or CellTiter-Glo
Experimental: as §1, §2, §3

[4] = system: CRO-AP2; assay: Inhibition of cell proliferation, CRO-AP2; settings: Homo sapiens, peripheral blood, 72 h, methylene blue or CellTiter-Glo
Experimental: as §1, §2, §3

[5] = system: MCF7; assay: Inhibition of cell proliferation, MCF7; settings: Homo sapiens, Breast, 72 h, methylene blue or CellTiter-Glo
Experimental: as §1, §2, §3

[6] = system: HCC1937; assay: Inhibition of cell proliferation, HCC1937; settings: Homo sapiens, breast, 72 h, methylene blue or CellTiter-Glo
Experimental: as §1, §2, §3

[7] = system: SW156; assay: Inhibition of cell proliferation, SW156; settings: kidney; 72 h; methylene blue or CellTiter-Glo
Experimental: as §1, §2, §3

[8] = system: Hela; assay: Inhibition of cell proliferation, Hela; settings: Homo sapiens, Cervical, 72 h, methylene blue or CellTiter-Glo
Experimental: as §1, §2, §3

[9] = system: SKMEL5; assay: Inhibition of cell proliferation, SKMEL5; settings: Homo sapiens, SK-MEL-5; skin; 72 h; methylene blue or CellTiter-Glo
Experimental: as §1, §2, §3

[10] = system: P388; assay: Inhibition of cell proliferation, P388; settings: Mouse leukemia, 72 h, methylene blue or CellTiter-Glo
Experimental: as §1, §2
(§4) Percent inhibition of cell growth was expressed as percent proliferation relative to 100% proliferation (control). Concentration of test compound that inhibited 50% of cell growth (IC50) was determined by 4 parameter fit of data using XLfit, (value of no cell control was substracted from all samples for background). The data are shown in Table 1 and Table 2 below and represent a compilation of several different experiments each performed using the general parameters outlined above, although minor variations may have been employed in some instances, in Table 1 and Table 2, +=IC50>1 μM; ++=IC50 0.5-1 μM: +++=IC50<0.5 μM.

[11] = system: NCI-H358; assay: Inhibition of cell proliferation, NCI-H358; settings: Homo sapiens, lung, 72 h, methylene blue or CellTiter-Glo
Experimental: as §1, §2, §3

[12] = system: A498; assay: Inhibition of cell proliferation, A498; settings: Homo sapiens, kidney, 72 h, methylene blue or CellTiter-Glo
Experimental: as §1, §2, §3

[13] = system: Capan-2; assay: Inhibition of cell proliferation, Capan-2; settings: Homo sapiens, pancreas, 72 h, methylene blue or CellTiter-Glo
Experimental: as §1, §2, §3

[14] = system: LoVo; assay: Inhibition of cell proliferation, LoVo; settings: Homo sapiens, colon, 72 h, methylene blue or CellTiter-Glo
Experimental: as §1, §2, §3

[15] = system: MX-1; assay: Inhibition of cell proliferation, MX-1; settings: Homo sapiens, MX1; Breast; 72 h; methylene blue or CellTiter-Glo
Experimental: as §1, §2, §4

[16] = system: BC-2; assay: Inhibition of cell proliferation, BC-2; settings: peripheral blood, 72 h, methylene blue or CellTiter-Glo
Experimental: as §1, §2, §3

[17] = system: EB-3; assay: Inhibition of cell proliferation, EB-3; settings: Homo sapiens, peripheral blood, 72 h, methylene blue or CellTiter-Glo
Experimental: as §1, §2, §3

[18] = system: U87-MG; assay: Inhibition of cell proliferation, U87-MG; settings: Homo sapiens, U-87 MG; brain; 72 h; methylene blue or CellTiter-Glo
Experimental: as §1, §2, §3

[19] = system: NCI-N87; assay: Inhibition of cell proliferation, NCI-N87; settings: Homo sapiens, stomach, 72 h, methylene blue or CellTiter-Glo
Experimental: as §1, §2, §3

[20] = system: BT549; assay: Inhibition of cell proliferation, BT549; settings: Homo sapiens, BT-549; breast; 72 h; methylene blue or CellTiter-Glo
Experimental: as §1, §2, §3

[21] = system: A 704; assay: Inhibition of cell proliferation, A 704; settings: Homo sapiens, A704; kidney; 72 h; methylene blue or CellTiter-Glo
Experimental: as §1, §2, §3

[22] = system: SKMEL3; assay: Inhibition of cell proliferation, SKMEL3; settings: Homo sapiens, SK-MEL3; skin; 72 h; methylene blue or CellTiter-Glo
Experimental: as §1, §2, §3

[23] = system: MiaPaca; assay: Inhibition of cell proliferation, MiaPaca; settings: Homo sapiens, MIA PaCa-2; Pancreatic; 72 h; methylene blue or CellTiter-Glo
Experimental: as §1, §2, §3

[24] = system: BXPC3; assay: Inhibition of cell proliferation, BXPC3; settings: Homo sapiens, BXPC-3; Pancreatic; 72 h; methylene blue or CellTiter-Glo
Experimental: as §1, §2, §3

[25] = system: MALME-3M; assay: Inhibition of cell proliferation, MALME-3M; settings: Homo sapiens, skin, derived from lung, 72 h, methylene blue or CellTiter-Glo
Experimental: as §1, §2, §3

[26] = system: CA46; assay: Inhibition of cell proliferation, CA46; settings: Homo sapiens, peripheral blood, 72 h, methylene blue or CellTiter-Glo
Experimental: as §1, §2, §3

[27] = system: A2780; assay: Inhibition of cell proliferation, A2780; settings: Homo sapiens, ovary, 72 h, methylene blue or CellTiter-Glo
Experimental: as §1, §2, §3

[28] = system: ASPC3; assay: Inhibition of cell proliferation, ASPC3; settings: Pancreatic; 72 h; methylene blue or CellTiter-Glo
Experimental: as §1, §2, §3

[29] = system: HCT-15; assay: Inhibition of cell proliferation, HCT-15; settings: Homo sapiens, colon, 72 h, methylene blue or CellTiter-Glo
Experimental: as §1, §2, §3

## C[C@@H](Oc1cc(-n2cnc3cc(-c4cnn(C)c4)ccc32)sc1C(N)=O)c1cccc(OC2CCN(C)CC2)c1Cl [Example 48]
[1]
  pIC50: > 6.30
[2]
  pIC50: > 6.30
[3]
  pIC50: > 6.30
[4]
  pIC50: > 6.30
[5]
  pIC50: > 6.30
[6]
  pIC50: < 6.00
[7]
  pIC50: < 6.00
[8]
  pIC50: > 6.30
[9]
  pIC50: > 6.30
[10]
  pIC50: > 6.30
[11]
  pIC50: > 6.30
[12]
  pIC50: > 6.30
[13]
  pIC50: < 6.00
[14]
  pIC50: > 6.30
[15]
  pIC50: > 6.30
[16]
  pIC50: < 6.00
[17]
  pIC50: > 6.30
[18]
  pIC50: > 6.30
[19]
  pIC50: > 6.30
[20]
  pIC50: > 6.30
[21]
  pIC50: > 6.30
[22]
  pIC50: > 6.30
[23]
  pIC50: > 6.30
[24]
  pIC50: > 6.30
[25]
  pIC50: < 6.00
[26]
  pIC50: > 6.30
[27]
  pIC50: > 6.30
[28]
  pIC50: > 6.30
[29]
  pIC50: > 6.30
